Source: US6383774B1, “Parasitic nematode transglutaminase, nucleic acid molecules and uses thereof” (Heska Corporation, priority 1996, dated 2002)
Where “and” joins values, the source holds several entries; their conditions need not be identical. Equal values may be shown once. Entries after “also recorded” stand apart in the source; their conditions may differ. Read-outs that look alike come from different tables or passages of the source.

What was measured:
PDI from bovine liver = molecular target: T1, PDI from bovine liver (Bos taurus, UniProt P05307); experiment: Effect of transglutaminase inhibitors on PDI activity of purified bovine liver PDI (scrambled RNase reactivation); assay type: biochemical; conditions: inhibitor 1 mM
T1 sequence (P05307 21-510): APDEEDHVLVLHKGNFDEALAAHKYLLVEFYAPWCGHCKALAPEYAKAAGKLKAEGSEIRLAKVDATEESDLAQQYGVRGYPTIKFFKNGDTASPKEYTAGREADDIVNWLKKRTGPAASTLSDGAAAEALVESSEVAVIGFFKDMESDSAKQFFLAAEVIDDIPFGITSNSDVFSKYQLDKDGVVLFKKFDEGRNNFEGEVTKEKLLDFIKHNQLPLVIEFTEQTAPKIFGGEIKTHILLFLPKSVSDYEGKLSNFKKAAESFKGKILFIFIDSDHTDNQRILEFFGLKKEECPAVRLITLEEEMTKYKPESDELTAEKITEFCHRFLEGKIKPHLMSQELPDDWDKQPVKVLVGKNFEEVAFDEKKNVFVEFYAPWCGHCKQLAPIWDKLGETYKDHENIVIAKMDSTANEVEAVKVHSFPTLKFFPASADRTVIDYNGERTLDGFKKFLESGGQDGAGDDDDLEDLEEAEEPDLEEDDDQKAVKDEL

[1] = tested on: D. immitis transglutaminase; experiment: Effect of ions, inhibitors and other reagents on activity of transglutaminase purified from adult D. immitis worms (microtiter plate assay); assay type: biochemical
PHIS-PDiTG468 [2] = assay type: biochemical, D. immitis
PHIS-PDiTG468 [3] = assay type: biochemical, D. immitis; remark: listed apart in the source
D. immitis L3 larvae = experiment: D. immitis L3 larval molting in in vitro larval culture; assay type: cell-based
[4] = molecular target: bovine protein disulfide isomerase (PDI) (Bos taurus, UniProt P05307)
dimethylcasein = assay type: biochemical
[5] = reagent 1 mM, with 10 mM CaCl2 and 10 mM dithiothreitol
[6] = 50 μM, inhibitor present during first 24 hr of L3 culture
[7] = 100 μM, inhibitor present during first 24 hr of L3 culture
[8] = reagent 10 mM, with 10 mM CaCl2 and 10 mM dithiothreitol

CN(C)c1cccc2c(S(=O)(=O)NCCCCCN)cccc12 [Monodansyl cadaverine]
PDI Activity (Mean ± SD) of PDI (PDI from bovine liver): 24.0 ± 2.0 ΔA min^−1 | Effect on activity of transglutaminase purified from adult D. immitis worms (in words) [1]: inhibited competitively | Transglutaminase activity (% of control) [1, 5]: 9 % of control | Activity (mU ± SEM) (PHIS-PDiTG468 [2]): 48.3 ± 4.0 mU and 44.6 ± 5.1 mU | Effect on transglutaminase activity of PHIS-PDiTG468 (in words) (PHIS-PDiTG468 [2]): inhibited the transglutaminase activity | PDI Activity (Mean ± SD) of PHIS-PDiTG468 (PHIS-PDiTG468 [3]): 41.2 ± 2.9 ΔA min^−1 | Percent molted (D. immitis L3 larvae; 25 μM, L3 cultured 6 days): 75% | Percent molted (D. immitis L3 larvae; 50 μM, L3 cultured 6 days): 63% | Percent molted (D. immitis L3 larvae; [6]): 64% | Percent molted (D. immitis L3 larvae; 75 μM, L3 cultured 6 days): 28% | Percent molted (D. immitis L3 larvae; 85 μM, L3 cultured 6 days): 2.5% | Inhibition of molting of L3 to L4 (in words) (D. immitis L3 larvae; 100 μM final concentration, listed as MDC): completely inhibited the molting process; also recorded: completely inhibits | Percent molted (D. immitis L3 larvae; 100 μM, L3 cultured 6 days): 0% | Percent molted (D. immitis L3 larvae; [7]): 41% | Molting of larvae cultured in the presence of MDC (in words) (D. immitis L3 larvae; day 6, electron microscopy study): failed to molt even on day 6

NCCSSCCN [Cystamine]
PDI Activity (Mean ± SD) of PDI (PDI from bovine liver): 26.4 ± 2.9 ΔA min^−1 | Effect on activity of transglutaminase purified from adult D. immitis worms (in words) [1]: inhibited competitively | Transglutaminase activity (% of control) [1, 5]: 52 % of control | Activity (mU ± SEM) (PHIS-PDiTG468 [2]): 46.4 ± 4.6 mU and 28.3 ± 2.2 mU | Effect on transglutaminase activity of PHIS-PDiTG468 (in words) (PHIS-PDiTG468 [2]): inhibited the transglutaminase activity | PDI Activity (Mean ± SD) of PHIS-PDiTG468 (PHIS-PDiTG468 [3]): 33.3 ± 1.8 ΔA min^−1 | Percent molted (D. immitis L3 larvae; 25 μM, L3 cultured 6 days): 61% | Percent molted (D. immitis L3 larvae; 50 μM, L3 cultured 6 days): 62% | Percent molted (D. immitis L3 larvae; [6]): 68% | Percent molted (D. immitis L3 larvae; 75 μM, L3 cultured 6 days): 17% | Percent molted (D. immitis L3 larvae; 85 μM, L3 cultured 6 days): 1% | Inhibition of molting of L3 to L4 (in words) (D. immitis L3 larvae; 100 μM final concentration): completely inhibited the molting process | Percent molted (D. immitis L3 larvae; 100 μM, L3 cultured 6 days): 0% | Percent molted (D. immitis L3 larvae; [7]): 13% | Inhibition of larval molting (in words) (D. immitis L3 larvae; added on day 2 during the culture): very effective inhibitor of larval molting

O[C@H](CS)[C@H](O)CS (racemic) [Dithiothreitol]
Effect on activity of transglutaminase purified from adult D. immitis worms (in words) [1]: increased the enzyme activity substantially | Effect on transglutaminase activity of PHIS-PDiTG468 (in words) (PHIS-PDiTG468 [2]): more active in the absence of DTT

NCCCCN [Putrescine]
Effect on activity of transglutaminase purified from adult D. immitis worms (in words) [1]: inhibited competitively | Transglutaminase activity (% of control) [1, 5]: 14 % of control | Activity (mU ± SEM) (PHIS-PDiTG468 [2]): 36.5 ± 3.9 mU and 35.3 ± 4.3 mU | Effect on transglutaminase activity of PHIS-PDiTG468 (in words) (PHIS-PDiTG468 [2]): inhibited the transglutaminase activity

Tris-HCl
Effect on activity of transglutaminase purified from adult D. immitis worms (in words) [1]: reversibly inhibited the enzyme | Transglutaminase activity (% of control) [1]: 66 % of control and 40 % of control

OCCS [mercaptoethanol]
Effect on activity of transglutaminase purified from adult D. immitis worms (in words) [1]: increased the enzyme activity substantially

Nc1nc2c(ncn2[C@@H]2O[C@H](COP(=O)(O)OP(=O)(O)OP(=O)(O)O)[C@@H](O)[C@H]2O)c(=O)[nH]1 [GTP]
Effect on activity of transglutaminase purified from adult D. immitis worms (in words) [1]: not affected adversely | Transglutaminase activity (% of control) ([1]; reagent 0.1 mM, with 10 mM CaCl2 and 10 mM dithiothreitol): 100 % of control | Transglutaminase activity (% of control) [1, 5]: 95 % of control

NC(=O)CI [Iodoacetamide]
Effect on activity of transglutaminase purified from adult D. immitis worms (in words) [1]: decreased the activity drastically | Effect on transglutaminase activity of PHIS-PDiTG468 (in words) (PHIS-PDiTG468 [2]): inhibited the transglutaminase activity | Inhibition of molting of L3 to L4 (in words) (D. immitis L3 larvae): able to inhibit

Nα-CBZ-Gln-Gly
Effect on activity of transglutaminase purified from adult D. immitis worms (in words) [1]: affects the enzyme activity only slightly | Transglutaminase activity (% of control) [1]: 92 % of control

N.N.O=S(=O)(O)O [(NH4)2SO4]
Transglutaminase activity (% of control) [1, 8]: 0 % of control

O=C(O)CN(CCOCCOCCN(CC(=O)O)CC(=O)O)CC(=O)O [EGTA]
Effect on activity of transglutaminase purified from adult D. immitis worms (in words) [1]: completely blocked the activity | Transglutaminase activity (% of control) [1, 8]: 0 % of control | Effect on transglutaminase activity of PHIS-PDiTG468 (in words) (PHIS-PDiTG468 [2]): inhibited

[Cl-].[K+] [KCl]
Transglutaminase activity (% of control) ([1]; reagent 500 mM, with 10 mM CaCl2 and 10 mM dithiothreitol): 54 % of control

O=C(O)CN(CCN(CC(=O)O)CC(=O)O)CC(=O)O [EDTA]
Effect on transglutaminase activity of bovine PDI (in words) [4]: inhibited | Effect on transglutaminase activity of PHIS-PDiTG468 (in words) (PHIS-PDiTG468 [2]): inhibited

B1: PDI: bovine protein disulfide isomerase, purified from bovine liver, available from Sigma (protein, UniProt P05307 21-510, looked up)
Protein disulfide-isomerase: T1 sequence (P05307 21-510)
Temperature of optimum transglutaminase activity (dimethylcasein): 55 °C | Activity (mU ± SEM) (dimethylcasein; 37 °C): 30.3 ± 1.0 mU | Activity (mU ± SEM) (dimethylcasein; 45 °C): 47.2 ± 2.5 mU | Activity (mU ± SEM) (dimethylcasein; 55 °C): 92.1 ± 4.3 mU | Activity (mU ± SEM) (dimethylcasein; 65 °C): 67.0 ± 2.9 mU
